Measurements published in PMC5760624, “Microbiota derived short chain fatty acids promote histone crotonylation in the colon through histone deacetylases” (Nature Communications, 2018).

Experiments:
HDAC1 [1] = biological target: T1, HDAC1 (Homo sapiens, UniProt Q13547); assay: in vitro histone decrotonylation/deacetylation assay with recombinant HDAC1, western blot readout; assay type: biochemical
HDAC1 [2] = biological target: T1, HDAC1; assay: in vitro histone decrotonylation/deacetylation assay with recombinant HDAC1; also used by HDAC1 to crotonylate histones at […] or higher; assay type: biochemical

T1 sequence (Q13547 whole entry): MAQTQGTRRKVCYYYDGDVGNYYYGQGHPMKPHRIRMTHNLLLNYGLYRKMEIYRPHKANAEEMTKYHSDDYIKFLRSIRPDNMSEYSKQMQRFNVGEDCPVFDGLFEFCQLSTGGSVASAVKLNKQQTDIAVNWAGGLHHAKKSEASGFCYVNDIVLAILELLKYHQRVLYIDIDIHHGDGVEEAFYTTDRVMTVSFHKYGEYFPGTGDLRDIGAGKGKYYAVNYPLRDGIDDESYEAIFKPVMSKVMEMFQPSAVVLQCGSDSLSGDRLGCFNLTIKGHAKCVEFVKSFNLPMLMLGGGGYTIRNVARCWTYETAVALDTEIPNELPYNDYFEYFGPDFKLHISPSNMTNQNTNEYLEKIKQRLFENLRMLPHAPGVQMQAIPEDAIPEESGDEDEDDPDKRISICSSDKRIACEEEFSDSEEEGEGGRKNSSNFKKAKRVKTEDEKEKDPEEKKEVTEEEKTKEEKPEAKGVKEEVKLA

| Structure (SMILES) | in vitro histone decrotonylation/deacetylation assay with recombinant HDAC1, wes (HDAC1 [1]) | in vitro histone decrotonylation/deacetylation assay with recombinant HDAC1; als (HDAC1 [2]) |
| --- | --- | --- |
| CCCC(=O)O [butyrate] | In vitro, HDAC inhibitors TSA and butyrate reduced decrotonylation by HDAC1 significantly | – |
| CC=CC(=O)O [crotonate] | – | We also found that crotonate inhibited decrotonylation and deacetylation in vitro (Fig. 7c). |
